Assay results from patent US20060228297A1, “Thorium-227 for use in radiotherapy of soft tissue disease” (priority 2003, published 2006).

How the values were obtained:
[1] = tested on: patients with breast or prostate cancer; test: Phase I study of ^223Ra, single doses, neutrophil cell fractions (Example 8); format: in vivo, humans; details: for Days to nadir (neutrophil cell fraction) / ˜% of baseline at nadir (neutrophil cell fraction): humans
Description: In a phase I study in patients with breast or prostate cancer, dose levels of 37, 74, 130, 170 and 200 kBq/kg of ^223Ra were given as single doses. Neutrophil cell fractions were monitored as a sensitive measure of haematological toxicity.

[2] = then concentrated in the skeleton or excreted via intestinal and renal routes; cited from earlier work

[223Ra] [^223Ra, radium-223]
Dose that can be administered and tolerated ([1]; human subjects): at least 200 kBq/kg
Days to nadir (neutrophil cell fraction) ([1]; 37 kBq/kg single dose): 14 days
˜% of baseline at nadir (neutrophil cell fraction) ([1]; 37 kBq/kg single dose): ~60%
Days to nadir (neutrophil cell fraction) ([1]; 74 kBq/kg single dose): 14 days
˜% of baseline at nadir (neutrophil cell fraction) ([1]; 74 kBq/kg single dose): ~60%
Days to nadir (neutrophil cell fraction) ([1]; 130 kBq/kg single dose): 28 days
˜% of baseline at nadir (neutrophil cell fraction) ([1]; 130 kBq/kg single dose): ~50%
Days to nadir (neutrophil cell fraction) ([1]; 170 kBq/kg single dose): 21 days
˜% of baseline at nadir (neutrophil cell fraction) ([1]; 170 kBq/kg single dose): ~40%
Days to nadir (neutrophil cell fraction) ([1]; 200 kBq/kg single dose): 21 days
˜% of baseline at nadir (neutrophil cell fraction) ([1]; 200 kBq/kg single dose): ~30%
Blood clearance [2]: very rapidly
